# Experimental data published in patent US10351561B2, “Pyrazolo[3,4-b]pyridines and imidazo[1,5-b]pyridazines as PDE1 inhibitors” (H. Lundbeck A/S, priority 2016, dated 2019).
# Read-outs that look alike come from different tables or passages of the source.
# What was measured:
# Assay type in all cases: biochemical
# Details in all cases: 15 nM tritium labelled cAMP, 1 hr at room temperature, SPA beads
# [1] = molecular target: PDE1A (Homo sapiens, UniProt P54750); assay: PDE1 inhibition assay (PDE1A), SPA with tritium labelled cAMP
# Protocol: (§1) PDE1A, PDE1B and PDE1C assays were performed as follows: the assays were performed in 60 μL samples containing a fixed amount of the PDE1 enzyme (sufficient to convert 20-25% of the cyclic nucleotide substrate), a buffer (50 mM HEPES (4-(2-hydroxyethyl)-1-piperazineethanesulfonic acid) pH 7.6; 10 mM MgCl2; 0.02% Tween20), 0.1 mg/ml BSA (bovine serum albumin), 15 nM tritium labelled cAMP and varying amounts of inhibitors. Reactions were initiated by addition of the cyclic nucleotide substrate, and reactions were allowed to proceed for 1 hr at room temperature before being terminated through mixing with 20 μL (0.2 mg) yttrium silicate SPA beads (PerkinElmer). The beads were allowed to settle for 1 hr in the dark before the plates were counted in a Wallac 1450 Microbeta counter. The measured signals were converted to activity relative to an uninhibited control (100%) and IC50 values were calculated using XIFit (model 205, IDBS).
# [2] = molecular target: PDE1C (Homo sapiens, UniProt Q14123); assay: PDE1 inhibition assay (PDE1C), SPA with tritium labelled cAMP
# Protocol: as §1
# [3] = molecular target: PDE1B (Homo sapiens, UniProt Q01064); assay: PDE1 inhibition assay (PDE1B), SPA with tritium labelled cAMP
# Protocol: Reactions were initiated by addition of the cyclic nucleotide substrate, and reactions were allowed to proceed for 1 hr at room temperature before being terminated through mixing with 20 μL (0.2 mg) yttrium silicate SPA beads (PerkinElmer).
# Chain of PDE1A (P54750 whole entry): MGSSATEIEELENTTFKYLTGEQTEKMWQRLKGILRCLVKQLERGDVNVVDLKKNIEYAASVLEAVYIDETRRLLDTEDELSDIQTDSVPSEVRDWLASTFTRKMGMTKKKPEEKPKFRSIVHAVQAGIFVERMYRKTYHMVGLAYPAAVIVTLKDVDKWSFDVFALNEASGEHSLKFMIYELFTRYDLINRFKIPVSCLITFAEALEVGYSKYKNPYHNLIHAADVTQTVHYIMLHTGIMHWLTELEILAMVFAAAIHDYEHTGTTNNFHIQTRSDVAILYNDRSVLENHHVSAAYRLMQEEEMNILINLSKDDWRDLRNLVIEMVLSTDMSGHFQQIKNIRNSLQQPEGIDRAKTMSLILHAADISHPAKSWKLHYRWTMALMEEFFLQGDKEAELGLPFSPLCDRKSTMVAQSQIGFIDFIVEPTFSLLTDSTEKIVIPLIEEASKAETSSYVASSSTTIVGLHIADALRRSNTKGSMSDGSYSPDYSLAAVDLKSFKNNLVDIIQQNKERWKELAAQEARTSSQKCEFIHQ
# Chain of PDE1B (Q01064 whole entry): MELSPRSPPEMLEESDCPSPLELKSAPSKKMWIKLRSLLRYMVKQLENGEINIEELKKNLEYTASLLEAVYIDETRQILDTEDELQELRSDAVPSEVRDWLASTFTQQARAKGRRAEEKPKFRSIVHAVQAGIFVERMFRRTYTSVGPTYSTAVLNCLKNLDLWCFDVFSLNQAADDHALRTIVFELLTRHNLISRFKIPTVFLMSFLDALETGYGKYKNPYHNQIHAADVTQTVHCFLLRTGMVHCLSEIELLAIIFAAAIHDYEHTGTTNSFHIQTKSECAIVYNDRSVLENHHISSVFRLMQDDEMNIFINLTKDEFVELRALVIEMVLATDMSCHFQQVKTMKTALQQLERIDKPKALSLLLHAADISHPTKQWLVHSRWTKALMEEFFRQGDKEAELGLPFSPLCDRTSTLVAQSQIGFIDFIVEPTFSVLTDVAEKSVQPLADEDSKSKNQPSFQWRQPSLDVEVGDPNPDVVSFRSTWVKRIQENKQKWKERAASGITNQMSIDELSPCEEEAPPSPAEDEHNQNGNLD
# Chain of PDE1C (Q14123 whole entry): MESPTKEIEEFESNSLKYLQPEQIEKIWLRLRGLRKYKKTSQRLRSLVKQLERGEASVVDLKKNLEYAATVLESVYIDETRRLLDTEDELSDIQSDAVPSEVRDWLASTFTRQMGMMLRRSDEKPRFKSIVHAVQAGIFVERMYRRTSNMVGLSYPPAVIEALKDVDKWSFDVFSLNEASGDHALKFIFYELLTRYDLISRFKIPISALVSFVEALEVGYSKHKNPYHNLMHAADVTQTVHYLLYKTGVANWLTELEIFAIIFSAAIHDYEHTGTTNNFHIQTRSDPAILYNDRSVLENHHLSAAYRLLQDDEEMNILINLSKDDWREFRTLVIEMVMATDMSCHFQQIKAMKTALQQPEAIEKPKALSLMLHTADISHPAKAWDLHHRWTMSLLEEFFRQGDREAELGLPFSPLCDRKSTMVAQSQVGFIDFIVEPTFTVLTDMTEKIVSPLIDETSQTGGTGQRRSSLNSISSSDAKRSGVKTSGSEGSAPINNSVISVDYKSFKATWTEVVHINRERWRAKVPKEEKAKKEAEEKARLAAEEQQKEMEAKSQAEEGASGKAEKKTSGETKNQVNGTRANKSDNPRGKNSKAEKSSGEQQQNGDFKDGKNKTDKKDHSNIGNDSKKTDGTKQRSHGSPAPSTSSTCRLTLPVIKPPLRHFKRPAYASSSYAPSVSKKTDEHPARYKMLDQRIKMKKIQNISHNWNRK
IC50 [1],IC50 [2],"IC50 ([3]; read-out: PDE1B, IC50)",Compound,"IC50 ([3]; PDE1B, IC50 (nM))"
130 nM,45 nM,30 nM,"COc1ncccc1-c1cc(NCc2ncn(C)n2)c2c(C(C)C)nn(C)c2n1 [Example 55, 3-isopropyl-6-(2-methoxy-3-pyridyl)-1-methyl-N-[(1-methyl-1,2,4-triazol-3-yl)methyl]pyrazolo[3,4-b]pyridin-4-amine]",–
290 nM,480 nM,52 nM,"CC(C)c1nn(C)c2nc(-c3cccn(C)c3=O)cc(NCc3ncn(C)n3)c12 [Example 56, 3-(3-isopropyl-1-methyl-4-(((1-methyl-1H-1,2,4-triazol-3-yl)methyl)amino)-1H-pyrazolo[3,4-b]pyridin-6-yl)-1-methylpyridin-2(1H)-one]",–
91 nM,6.5 nM,22 nM,"COc1nccnc1-c1cc(NCc2ncn(C)n2)c2c(C(C)C)nn(C)c2n1 [Example 57, 3-isopropyl-6-(3-methoxypyrazin-2-yl)-1-methyl-N-((1-methyl-1H-1,2,4-triazol-3-yl)methyl)-1H-pyrazolo[3,4-b]pyridin-4-amine]",–
29 nM,31 nM,4.6 nM,"Cc1sccc1-c1cc(NCc2ncn(C)n2)c2c(C(C)C)nn(C)c2n1 [Example 58, 3-isopropyl-1-methyl-6-(2-methyl-3-thienyl)-N-[(1-methyl-1,2,4-triazol-3-yl)methyl]pyrazolo[3,4-b]pyridin-4-amine]",–
48 nM,74 nM,8.8 nM,"Cc1csc(-c2cc(NCc3ncn(C)n3)c3c(C(C)C)nn(C)c3n2)n1 [Example 60, 3-isopropyl-1-methyl-6-(4-methylthiazol-2-yl)-N-[(1-methyl-1,2,4-triazol-3-yl)methyl]pyrazolo[3,4-b]pyridin-4-amine]",–
32 nM,46 nM,4.6 nM,"Cc1ncsc1-c1cc(NCc2ncn(C)n2)c2c(C(C)C)nn(C)c2n1 [Example 61, 3-isopropyl-1-methyl-N-((1-methyl-1H-1,2,4-triazol-3-yl)methyl)-6-(4-methylthiazol-5-yl)-1H-pyrazolo[3,4-b]pyridin-4-amine]",–
280 nM,150 nM,170 nM,"Cc1cnc(-c2cc(NCc3ncn(C)n3)c3c(C(C)C)nn(C)c3n2)s1 [Example 62, 3-isopropyl-1-methyl-6-(5-methylthiazol-2-yl)-N-[(1-methyl-1,2,4-triazol-3-yl)methyl]pyrazolo[3,4-b]pyridin-4-amine]",–
83 nM,36 nM,21 nM,"CC(C)c1nn(C)c2nc(-c3ccccc3)cc(NCc3ncn(C)n3)c12 [Example 63, 3-isopropyl-1-methyl-N-[(1-methyl-1,2,4-triazol-3-yl)methyl]-6-phenyl-pyrazolo[3,4-b]pyridin-4-amine]",–
31 nM,46 nM,5.1 nM,"CC(C)c1nn(C)c2nc(-c3cccs3)cc(NCc3ncn(C)n3)c12 [Example 65, 3-isopropyl-1-methyl-N-[(1-methyl-1,2,4-triazol-3-yl)methyl]-6-(2-thienyl)pyrazolo[3,4-b]pyridin-4-amine]",–
27 nM,39 nM,3.7 nM,"CCOc1nnccc1-c1cc(NCc2ncn(C)n2)c2c(C(C)C)nn(C)c2n1 [Example 66, 6-(3-ethoxypyridazin-4-yl)-3-isopropyl-1-methyl-N-[(1-methyl-1,2,4-triazol-3-yl)methyl]pyrazolo[3,4-b]pyridin-4-amine]",–
7.8 nM,19 nM,2.7 nM,"CCCOc1nnccc1-c1cc(NCc2ncn(C)n2)c2c(C(C)C)nn(C)c2n1 [Example 67, 3-isopropyl-1-methyl-N-[(1-methyl-1,2,4-triazol-3-yl)methyl]-6-(3-propoxypyridazin-4-yl)pyrazolo[3,4-b]pyridin-4-amine]",–
58 nM,59 nM,5.5 nM,"CCOc1cnccc1-c1cc(NCc2ncn(C)n2)c2c(C(C)C)nn(C)c2n1 [Example 68, 6-(3-ethoxy-4-pyridyl)-3-isopropyl-1-methyl-N-[(1-methyl-1,2,4-triazol-3-yl)methyl]pyrazolo[3,4-b]pyridin-4-amine]",–
24 nM,25 nM,5.2 nM,"CCOc1nnccc1-c1cc(NCc2cnn(C)c2)c2c(C(C)C)nc(C)n2n1 [Example 69, 2-(3-ethoxypyridazin-4-yl)-5-isopropyl-7-methyl-N-[(1-methylpyrazol-4-yl)methyl]imidazo[1,5-b]pyridazin-4-amine]",–
21 nM,28 nM,6.3 nM,"CCOc1cnccc1-c1cc(NCc2cnn(C)c2)c2c(C(C)C)nc(C)n2n1 [Example 70, 2-(3-ethoxy-4-pyridyl)-5-isopropyl-7-methyl-N-[(1-methylpyrazol-4-yl)methyl]imidazo[1,5-b]pyridazin-4-amine]",–
3.3 nM,7 nM,1 nM,"CCCOc1ncccc1-c1cc(NCc2cnn(C)c2)c2c(C(C)C)nc(C)n2n1 [Example 71, 5-isopropyl-7-methyl-N-[(1-methylpyrazol-4-yl)methyl]-2-(2-propoxy-3-pyridyl)imidazo[1,5-b]pyridazin-4-amine]",–
1.4 nM,1.1 nM,0.27 nM,"CCCOc1ncccc1-c1cc(NCc2ncn(C)n2)c2c(C(C)C)nc(C)n2n1 [Example 72, 5-isopropyl-7-methyl-N-[(1-methyl-1,2,4-triazol-3-yl)methyl]-2-(2-propoxy-3-pyridyl)imidazo[1,5-b]pyridazin-4-amine]",–
33 nM,29 nM,3.6 nM,"CCOc1ncccc1-c1cc(NCc2cccnc2F)c2c(C(C)C)nc(C)n2n1 [Example 73, 2-(2-ethoxy-3-pyridyl)-N-[(2-fluoro-3-pyridyl)methyl]-5-isopropyl-7-methyl-imidazo[1,5-b]pyridazin-4-amine]",–
180 nM,190 nM,27 nM,"CCOc1ncccc1-c1cc(NCc2ccccn2)c2c(C(C)C)nc(C)n2n1 [Example 74, 2-(2-ethoxy-3-pyridyl)-5-isopropyl-7-methyl-N-(2-pyridylmethyl)imidazo[1,5-b]pyridazin-4-amine]",–
11 nM,24 nM,0.13 nM,"CCOc1ncccc1-c1cc(NCc2ncccn2)c2c(C(C)C)nc(C)n2n1 [Example 75, 2-(2-ethoxy-3-pyridyl)-5-isopropyl-7-methyl-N-(pyrimidin-2-ylmethyl)imidazo[1,5-b]pyridazin-4-amine]",–
89 nM,110 nM,17 nM,"CCOc1ncccc1-c1cc(NCc2ncc(F)cn2)c2c(C(C)C)nc(C)n2n1 [Example 76, 2-(2-ethoxy-3-pyridyl)-N-[(5-fluoropyrimidin-2-yl)methyl]-5-isopropyl-7-methyl-imidazo[1,5-b]pyridazin-4-amine]",–
48 nM,48 nM,9 nM,"CCOc1ncccc1-c1cc(NCc2cccnc2OC)c2c(C(C)C)nc(C)n2n1 [Example 77, 2-(2-ethoxy-3-pyridyl)-5-isopropyl-N-[(2-methoxy-3-pyridyl)methyl]-7-methyl-imidazo[1,5-b]pyridazin-4-amine]",–
61 nM,39 nM,5.5 nM,"CCOc1ncccc1-c1cc(NCc2cccc3cncn23)c2c(C(C)C)nc(C)n2n1 [Example 78, 2-(2-ethoxy-3-pyridyl)-N-(imidazo[1,5-a]pyridin-5-ylmethyl)-5-isopropyl-7-methyl-imidazo[1,5-b]pyridazin-4-amine]",–
35 nM,19 nM,28 nM,"CCOc1ncccc1-c1cc(NCc2cccc3nccn23)c2c(C(C)C)nc(C)n2n1 [Example 79, 2-(2-ethoxy-3-pyridyl)-N-(imidazo[1,2-a]pyridin-5-ylmethyl)-5-isopropyl-7-methyl-imidazo[1,5-b]pyridazin-4-amine]",–
74 nM,72 nM,15 nM,"CCOc1ncccc1-c1cc(NCc2cccnc2C(F)(F)F)c2c(C(C)C)nc(C)n2n1 [Example 80, 2-(2-ethoxy-3-pyridyl)-5-isopropyl-7-methyl-N-[[2-(trifluoromethyl)-3-pyridyl]methyl]imidazo[1,5-b]pyridazin-4-amine]",–

Compound,IC50 [1],IC50 [2],"IC50 ([3]; read-out: PDE1B, IC50)","IC50 ([3]; PDE1B, IC50 (nM))"
"Cc1coc(-c2cc(NCc3ncn(C)n3)c3c(C(C)C)nn(C)c3n2)n1 [Example 59, 3-isopropyl-1-methyl-N-((1-methyl-1H-1,2,4-triazol-3-yl)methyl)-6-(4-methyloxazol-2-yl)-1H-pyrazolo[3,4-b]pyridin-4-amine]",99 nM,67 nM,–,14 nM
"COc1ncncc1-c1cc(NCc2ncn(C)n2)c2c(C(C)C)nn(C)c2n1 [Example 64, 3-isopropyl-6-(4-methoxypyrimidin-5-yl)-1-methyl-N-[(1-methyl-1,2,4-triazol-3-yl)methyl]pyrazolo[3,4-b]pyridin-4-amine]",66 nM,2.9 nM,13 nM,–
